Test results published in patent publication US5891842A, “Methodology for eliciting an analgesic response in a living subject” (priority 1996, dated 1999).
Read-outs that look alike come from different tables or passages of the source.

Experiments:
[1] = oral, antitussive doses, cited from earlier work; for DOSE (figures in parentheses): not necessarily equieffective
[2] = cited from earlier work
[3] = intrathecal administration of morphine; cited from earlier work
[4] = 10 mg/70 kg body weight; cited from earlier work
[5] = test system: rats with spinal cord transection; experiment: Tail-flick analgesic testing after intrathecal administration, acutely transected spinal cord; type: in vivo, rat; settings: 0.2 ug MS alone
[6] = test system: Adult male Sprague-Dawley rats; experiment: Tail-flick analgesic testing after intrathecal administration; type: in vivo, rat
[7] = analgesic effects after subcutaneous administration

Row | SMILES | DURATION OF ACTION [2, 7] | DOSE: amount given subcutaneously that produces approximately the same analgesic effects as 10 mg of morphine ([2]; in vivo, sc) | further results
1 | CC(=O)Oc1ccc2c3c1O[C@H]1[C@@H](OC(C)=O)C=C[C@H]4[C@@H](C2)N(C)CC[C@@]341 [Heroin, diacetylmorphine] | 3 to 4 h | 4 | DOSE (figures in parentheses) [1]: 2 to 8 mg
2 | CCC(=O)C(CC(C)N1CCOCC1)(c1ccccc1)c1ccccc1 (stereo not shown) [Phenadoxone] | 1 to 3 h | 10-20 | –
3 | CN1CC[C@]23c4c5ccc(O)c4O[C@H]2[C@@H](O)C=C[C@H]3[C@H]1C5 [Morphine] | – | 10 | effect on hyperalgesia of administered substance P [3]: blocks the hyperalgesic effects; relieves post-operative pain satisfactorily (share of patients) [4]: about two-thirds; DURATION OF ACTION ([2]; in vivo, sc): 4-5
4 | CN1CC[C@]23CCCC[C@H]2[C@H]1Cc1ccc(O)cc13 [Levorphanol] | 4 to 5 h | 2 | –
5 | COc1ccc2c3c1O[C@H]1[C@@H](O)CC[C@H]4[C@@H](C2)N(C)CC[C@@]341 [Drocode, dihydrocodeine] | 4 to 5 h | 60 | –
6 | COc1ccc2c3c1O[C@H]1[C@@H](O)C=C[C@H]4[C@@H](C2)N(C)CC[C@@]341 [Codeine] | – | 120 | DURATION OF ACTION (figures in parentheses) [1]: 4 to 6 h; DOSE (figures in parentheses) [1]: 10 to 20 mg
7 | CCC(=O)OC1(c2ccccc2)CCN(C)CC1C (stereo not shown) [Alphaaprodine, Alphaprodine] | 1 to 2 h | 40 | –
8 | CCC(=O)C(CC(C)N(C)C)(c1ccccc1)c1ccccc1 (stereo not shown) [Methadone] | 3 to 5 h | 8-10 | –
9 | CN1CC[C@]23c4c5ccc(OCCN6CCOCC6)c4O[C@H]2[C@@H](O)C=C[C@H]3[C@H]1C5 [Pholcodine, β-morpholinylethylmorphine] | – | – | DURATION OF ACTION (figures in parentheses) [1]: 4 to 5 h; DOSE (figures in parentheses) [1]: 5 to 15 mg
10 | C[C@H](CN1CCOCC1)C(C(=O)N1CCCC1)(c1ccccc1)c1ccccc1 [Dextromoramide] | 4 to 5 h | 5-7.5 | –
11 | CN1CC[C@]23c4c5ccc(O)c4O[C@H]2C(=O)CC[C@@]3(O)[C@H]1C5 [Oxymorphone, dihydrohydroxymorphinone] | 4 to 5 h | 1.0-1.5 | –
12 | CN1CC[C@]23c4c5ccc(O)c4O[C@H]2[C@@H](O)C=C[C@H]3[C@H]1C5.O=S(=O)(O)O [MS, morphine sulphate] | – | – | analgesic response [5]: modest analgesic response; analgesic response ([6]; 0.02 ug MS alone, intrathecal): weak response; analgesic response, peak ([6]; 0.1 ug MS alone, intrathecal): approximately 30 % MPE; analgesic response ([6]; 0.5 ug MS alone, intrathecal): maximal analgesic response between 5 and 30 min; declined to baseline ([6]; 0.5 ug MS alone, intrathecal): 60 min
13 | CCC(=O)C(CC(C)N1CCCCC1)(c1ccccc1)c1ccccc1 (stereo not shown) [Dipipanone] | 4 to 5 h | 20-25 | –
14 | COc1ccc2c3c1O[C@H]1C(=O)CC[C@H]4[C@@H](C2)N(C)CC[C@]314 [Hyrocodone, dihydrocodeinone] | – | – | DURATION OF ACTION (figures in parentheses) [1]: 4 to 8 h; DOSE (figures in parentheses) [1]: 5 to 10 mg
15 | COc1ccc2c3c1O[C@H]1C(=O)CC[C@@]4(O)[C@@H](C2)N(C)CC[C@]314 [Oxycodone, dihydrohydroxycodeinone] | 4 to 5 h | 10-15 | –
16 | CCOC(=O)C1(c2ccccc2)CCN(C)CC1 [Meperidine] | 2 to 4 h | 75-100 | –
17 | C=CCN1CC[C@]23c4c5ccc(O)c4O[C@H]2C(=O)CC[C@@]3(O)[C@H]1C5 [naloxone] | – | – | analgesic response produced by MS in combination with SP after naloxone pretreatment ([6]; naloxone 1.0 ug intrathecal 10 min prior to 0.1 ug MS + 10 pmol SP): essentially eliminated
